Test results reported in PMC4522657, “Identification of a DYRK1A Inhibitor that Induces Degradation of the Target Kinase using Co-chaperone CDC37 fused with Luciferase nanoKAZ” (Scientific Reports, 2015).

Legend:
TAOK2 = target: T1, TAOK2 (Homo sapiens, UniProt Q9UL54); assay: Kinase panel, CaNDY 1 µM; type: biochemical; conditions: CaNDY 1 µM relative to DMSO
T1 construct: purchased Carna Biosciences

CK2α2/β = target: T2, CK2α2/β (Homo sapiens, UniProt P19784); assay: Kinase panel, CaNDY 1 µM; type: biochemical; conditions: CaNDY 1 µM relative to DMSO
T2 construct: purchased Carna Biosciences
T2 sequence (P19784 whole entry): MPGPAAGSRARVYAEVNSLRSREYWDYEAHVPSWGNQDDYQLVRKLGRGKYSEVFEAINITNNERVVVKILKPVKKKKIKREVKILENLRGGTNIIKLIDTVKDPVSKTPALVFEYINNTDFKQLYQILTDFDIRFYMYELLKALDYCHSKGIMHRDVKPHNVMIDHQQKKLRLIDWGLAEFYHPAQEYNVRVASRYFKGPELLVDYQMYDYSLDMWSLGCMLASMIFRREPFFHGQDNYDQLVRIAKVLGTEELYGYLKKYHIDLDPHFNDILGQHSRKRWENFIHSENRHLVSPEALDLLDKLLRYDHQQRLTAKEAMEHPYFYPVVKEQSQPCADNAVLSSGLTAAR
T2 sequence (P67870 whole entry partner): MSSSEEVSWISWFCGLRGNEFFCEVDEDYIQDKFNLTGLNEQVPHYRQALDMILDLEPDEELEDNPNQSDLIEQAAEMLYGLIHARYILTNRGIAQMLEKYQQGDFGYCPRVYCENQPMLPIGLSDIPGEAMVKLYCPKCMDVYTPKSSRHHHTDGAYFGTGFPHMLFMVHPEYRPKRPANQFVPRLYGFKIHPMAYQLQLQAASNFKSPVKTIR

HGK = target: T3, HGK (Homo sapiens, UniProt O95819); assay: Kinase panel, CaNDY 1 µM; type: biochemical; conditions: CaNDY 1 µM relative to DMSO
T3 construct: purchased Carna Biosciences

TRKA = target: T4, TRKA (Homo sapiens, UniProt P04629); assay: Kinase panel, CaNDY 1 µM; type: biochemical; conditions: CaNDY 1 µM relative to DMSO
T4 construct: purchased Carna Biosciences

NDR2 = target: T5, NDR2 (Homo sapiens, UniProt Q9Y2H1); assay: Kinase panel, CaNDY 1 µM; type: biochemical; conditions: CaNDY 1 µM relative to DMSO
T5 construct: purchased Carna Biosciences
T5 sequence (Q9Y2H1 whole entry): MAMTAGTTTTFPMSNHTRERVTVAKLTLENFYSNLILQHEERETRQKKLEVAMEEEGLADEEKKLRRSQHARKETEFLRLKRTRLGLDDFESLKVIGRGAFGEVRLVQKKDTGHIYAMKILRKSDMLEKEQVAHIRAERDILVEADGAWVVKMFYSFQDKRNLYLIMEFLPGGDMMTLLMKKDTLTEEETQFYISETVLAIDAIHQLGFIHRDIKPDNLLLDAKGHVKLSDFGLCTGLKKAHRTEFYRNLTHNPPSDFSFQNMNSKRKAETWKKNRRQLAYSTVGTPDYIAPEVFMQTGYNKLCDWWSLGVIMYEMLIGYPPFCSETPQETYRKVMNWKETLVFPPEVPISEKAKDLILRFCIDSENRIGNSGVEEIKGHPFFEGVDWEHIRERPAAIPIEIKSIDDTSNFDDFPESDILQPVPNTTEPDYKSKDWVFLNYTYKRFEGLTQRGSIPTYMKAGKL

[1] = target: T6, pre-accumulated 3xFLAG-DYRK1A (Homo sapiens, UniProt Q13627); assay: Pre-accumulated DYRK1A after cycloheximide, Western blot in HEK293 cells; type: cell-based; conditions: cycloheximide 1 mg/mL pre-treatment, CaNDY 2 µM, 0-24 h
T6 construct: F2A peptide linking to EGFP (2A skipping releases EGFP; a 2A remnant may stay on DYRK1A) (C); expressed in transfected cells; host or cells: HEK293
Method: Western blot analysis was performed using the antibodies described above. In brief, total cell lysates were separated by SDS-PAGE (5–20% gels; ATTO, Tokyo, Japan) under reducing conditions and then transferred to a PVDF membrane (PALL, SP, Brazil). Antibody reactions were performed with Can Get Signal® Immunoreaction Enhancer Solution (Toyobo). Peroxidase activities on the membrane were visualized with ECL Western Blotting Detection Reagents (GE Healthcare) or ImmunoStar® LD (Wako Pure Chemical Industries, Osaka, Japan), and a ChemiDoc^TM MP Imaging System (Bio-Rad, Hercules, CA, USA).
Targeting the DYRK1A/CDC37 complex
HEK293 cells were transfected with an expression vector for 3xFLAG-DYRK1A. At 48 h after transfection, the cells were pre-treated with 1 mg/mL cycloheximide (CHX) to stop protein synthesis, and then treated with CaNDY (2 µM) for the indicated time (0-24 h). The total cell lysates were subjected to SDS-PAGE followed by Western blot analysis.
(1 picture or pasted object on this page, not shown here)

HER2 = target: T7, HER2 (Homo sapiens, UniProt P04626); assay: Kinase panel, CaNDY 1 µM; type: biochemical; conditions: CaNDY 1 µM relative to DMSO
T7 construct: purchased Carna Biosciences

IRR = target: T8, IRR (Homo sapiens, UniProt P14616); assay: Kinase panel, CaNDY 1 µM; type: biochemical; conditions: CaNDY 1 µM relative to DMSO
T8 construct: purchased Carna Biosciences

RSK1 = target: T9, RSK1 (Homo sapiens, UniProt Q15418); assay: Kinase panel, CaNDY 1 µM; type: biochemical; conditions: CaNDY 1 µM relative to DMSO
T9 construct: purchased Carna Biosciences
T9 sequence (Q15418 whole entry): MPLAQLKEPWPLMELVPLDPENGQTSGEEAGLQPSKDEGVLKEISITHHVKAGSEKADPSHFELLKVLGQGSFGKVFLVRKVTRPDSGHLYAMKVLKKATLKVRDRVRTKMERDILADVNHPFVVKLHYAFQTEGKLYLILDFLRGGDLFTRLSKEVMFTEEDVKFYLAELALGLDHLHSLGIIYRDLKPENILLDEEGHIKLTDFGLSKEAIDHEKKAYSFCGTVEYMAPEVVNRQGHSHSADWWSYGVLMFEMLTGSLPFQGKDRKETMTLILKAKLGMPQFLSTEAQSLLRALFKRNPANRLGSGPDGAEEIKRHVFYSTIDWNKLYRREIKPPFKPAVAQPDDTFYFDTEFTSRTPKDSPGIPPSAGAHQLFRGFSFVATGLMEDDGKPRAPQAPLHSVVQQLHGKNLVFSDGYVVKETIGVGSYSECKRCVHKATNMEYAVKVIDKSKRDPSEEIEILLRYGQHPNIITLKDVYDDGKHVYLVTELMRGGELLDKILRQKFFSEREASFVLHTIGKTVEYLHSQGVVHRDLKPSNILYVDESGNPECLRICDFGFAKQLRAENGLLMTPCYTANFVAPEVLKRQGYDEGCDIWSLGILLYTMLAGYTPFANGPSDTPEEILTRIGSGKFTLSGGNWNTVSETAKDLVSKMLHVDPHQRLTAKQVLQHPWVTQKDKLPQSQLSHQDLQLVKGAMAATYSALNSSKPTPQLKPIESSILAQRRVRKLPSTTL

MAPKAPK3 = target: T10, MAPKAPK3 (Homo sapiens, UniProt Q16644); assay: Kinase panel, CaNDY 1 µM; type: biochemical; conditions: CaNDY 1 µM relative to DMSO
T10 construct: purchased Carna Biosciences

CaMK1α = target: T11, CaMK1α (Homo sapiens, UniProt Q14012); assay: Kinase panel, CaNDY 1 µM; type: biochemical; conditions: CaNDY 1 µM relative to DMSO
T11 construct: purchased Carna Biosciences
T11 sequence (Q14012 whole entry): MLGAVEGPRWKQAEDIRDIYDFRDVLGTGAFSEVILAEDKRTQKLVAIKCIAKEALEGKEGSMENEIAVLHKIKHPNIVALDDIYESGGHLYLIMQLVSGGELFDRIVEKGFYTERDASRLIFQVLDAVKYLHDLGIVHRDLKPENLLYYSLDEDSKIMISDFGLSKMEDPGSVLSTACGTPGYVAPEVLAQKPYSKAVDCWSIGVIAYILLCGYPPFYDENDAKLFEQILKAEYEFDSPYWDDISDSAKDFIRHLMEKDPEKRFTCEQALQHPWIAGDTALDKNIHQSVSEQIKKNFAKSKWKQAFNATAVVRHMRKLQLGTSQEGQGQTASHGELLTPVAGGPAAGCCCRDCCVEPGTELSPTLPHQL

FGFR3(K650E) = target: T12, FGFR3(K650E) (Homo sapiens, UniProt P22607, K650E); assay: Kinase panel, CaNDY 1 µM; type: biochemical; conditions: CaNDY 1 µM relative to DMSO
T12 construct: purchased Carna Biosciences
T12 sequence (P22607 23-806 K650E): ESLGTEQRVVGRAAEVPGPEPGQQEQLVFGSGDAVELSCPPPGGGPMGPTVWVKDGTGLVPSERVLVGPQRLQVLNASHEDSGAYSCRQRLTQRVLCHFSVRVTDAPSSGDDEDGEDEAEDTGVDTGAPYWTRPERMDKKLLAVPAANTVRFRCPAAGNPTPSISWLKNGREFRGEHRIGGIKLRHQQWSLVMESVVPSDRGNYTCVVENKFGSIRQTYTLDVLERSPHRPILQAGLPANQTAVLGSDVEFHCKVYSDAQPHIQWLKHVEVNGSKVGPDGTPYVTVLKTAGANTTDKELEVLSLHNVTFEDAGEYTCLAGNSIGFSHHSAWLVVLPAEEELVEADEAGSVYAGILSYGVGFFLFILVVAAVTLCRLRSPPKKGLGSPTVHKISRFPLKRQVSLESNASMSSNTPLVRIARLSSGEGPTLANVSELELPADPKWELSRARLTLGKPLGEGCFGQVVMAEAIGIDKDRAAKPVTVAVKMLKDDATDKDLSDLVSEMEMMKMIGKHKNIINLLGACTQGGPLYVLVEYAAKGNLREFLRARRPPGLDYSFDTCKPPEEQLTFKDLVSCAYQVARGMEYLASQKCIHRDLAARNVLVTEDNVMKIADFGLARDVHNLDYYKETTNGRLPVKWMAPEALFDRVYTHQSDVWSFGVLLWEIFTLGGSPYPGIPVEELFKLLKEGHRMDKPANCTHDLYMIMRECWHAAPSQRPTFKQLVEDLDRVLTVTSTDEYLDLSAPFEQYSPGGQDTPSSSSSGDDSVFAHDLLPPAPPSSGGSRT

Haspin = target: T13, Haspin (Homo sapiens, UniProt Q8TF76); assay: Kinase panel, CaNDY 1 µM; type: biochemical; set-up: purchased Carna Biosciences
T13 sequence (Q8TF76 1-798): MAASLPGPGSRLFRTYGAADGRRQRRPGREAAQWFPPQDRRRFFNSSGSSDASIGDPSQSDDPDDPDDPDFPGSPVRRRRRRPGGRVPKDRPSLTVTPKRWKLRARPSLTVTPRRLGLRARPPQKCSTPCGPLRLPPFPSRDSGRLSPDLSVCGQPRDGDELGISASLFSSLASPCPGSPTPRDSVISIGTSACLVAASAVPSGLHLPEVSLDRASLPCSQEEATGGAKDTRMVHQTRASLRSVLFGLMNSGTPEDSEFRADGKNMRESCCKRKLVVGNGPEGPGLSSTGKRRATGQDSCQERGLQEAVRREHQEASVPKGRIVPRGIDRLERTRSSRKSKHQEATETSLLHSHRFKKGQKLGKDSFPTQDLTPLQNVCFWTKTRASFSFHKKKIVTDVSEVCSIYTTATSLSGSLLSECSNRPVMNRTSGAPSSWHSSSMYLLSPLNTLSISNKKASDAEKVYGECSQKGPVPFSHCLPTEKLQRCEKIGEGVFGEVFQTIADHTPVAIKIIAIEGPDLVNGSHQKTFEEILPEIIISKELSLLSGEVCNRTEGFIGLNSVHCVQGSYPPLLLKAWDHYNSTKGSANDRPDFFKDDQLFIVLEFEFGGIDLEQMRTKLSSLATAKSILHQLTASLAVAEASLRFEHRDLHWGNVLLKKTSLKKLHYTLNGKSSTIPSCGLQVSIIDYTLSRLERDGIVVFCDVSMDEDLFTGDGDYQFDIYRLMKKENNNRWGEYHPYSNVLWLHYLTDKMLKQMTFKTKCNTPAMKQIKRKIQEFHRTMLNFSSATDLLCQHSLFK
Text: (§1) Detailed information on the assay conditions is available on the website of Carna Biosciences (http://www.carnabio.com/english/index.html; Kobe, Japan). In brief, full-length human recombinant kinases were expressed using a baculovirus expression system as amino-terminal GST-fusion proteins, and purified by glutathione-Sepharose chromatography. The GenBank accession numbers of DYRK1A, DYRK1B, DYRK2, and DYRK3 were NP_001387.2, NP_004705.1, NP_003574.1, and NP_003573.2. Kinase activities were evaluated by Off-chip Mobility Shift Assay after reaction of 1 μM of the substrate DYRKtide-F with ATP (25 μM for DYRK1A, 50 μM for DYRK1B, 10 μM for DYRK2, and 5 μM for DYRK3). For each compound, a DMSO solution was diluted in assay buffer to yield a final concentration of 1% DMSO. After incubation for one hour at room temperature, substrate phosphorylation was analyzed by electrophoretic separation of the substrate and products using a Caliper LC3000 platform (Caliper Life Sciences, Mountain View, CA, USA). The phosphorylated product (P)/(P + substrate) ratio was calculated at each concentration of each small molecule and the percent inhibition was expressed relative to a control assay in the absence of the small molecule. […] The IC50 of each compound was calculated by interpolation on a log-concentration-response curve fitted with a four-parameter logistic equation.
(§2) All kinase assays were carried out at Carna Biosciences. The inhibitory map was made with Kinome Render[36].

DYRK1B = DYRK1B (Homo sapiens, UniProt Q9Y463); assay: Kinase panel, CaNDY 1 µM; type: biochemical; set-up: purchased Carna Biosciences
Sequence of DYRK1B (Q9Y463 whole entry): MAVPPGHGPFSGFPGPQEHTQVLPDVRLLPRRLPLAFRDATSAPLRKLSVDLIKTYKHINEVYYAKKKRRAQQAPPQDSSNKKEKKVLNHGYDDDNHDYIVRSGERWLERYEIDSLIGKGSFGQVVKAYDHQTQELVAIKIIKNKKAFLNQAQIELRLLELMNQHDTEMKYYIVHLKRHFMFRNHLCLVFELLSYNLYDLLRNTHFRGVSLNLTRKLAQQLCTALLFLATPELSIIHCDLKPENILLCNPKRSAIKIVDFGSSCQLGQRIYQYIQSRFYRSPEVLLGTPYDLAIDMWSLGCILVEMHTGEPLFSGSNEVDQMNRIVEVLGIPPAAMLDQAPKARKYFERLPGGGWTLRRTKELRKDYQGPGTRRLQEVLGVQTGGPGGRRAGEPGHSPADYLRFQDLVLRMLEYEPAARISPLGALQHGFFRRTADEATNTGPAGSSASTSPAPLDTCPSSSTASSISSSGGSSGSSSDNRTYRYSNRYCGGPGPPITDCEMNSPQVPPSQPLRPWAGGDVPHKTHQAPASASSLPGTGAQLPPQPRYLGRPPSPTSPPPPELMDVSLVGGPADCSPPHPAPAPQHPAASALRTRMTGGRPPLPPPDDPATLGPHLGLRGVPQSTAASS
Text: as §1, §2

DYRK1A = DYRK1A (Homo sapiens, UniProt Q13627); assay: Kinase panel, CaNDY 1 µM; type: biochemical; set-up: purchased Carna Biosciences
Text: as §1, §2

[2] = 1 μM CaNDY, read-out: percentage inhibition

T1 sequence (Q9UL54 whole entry): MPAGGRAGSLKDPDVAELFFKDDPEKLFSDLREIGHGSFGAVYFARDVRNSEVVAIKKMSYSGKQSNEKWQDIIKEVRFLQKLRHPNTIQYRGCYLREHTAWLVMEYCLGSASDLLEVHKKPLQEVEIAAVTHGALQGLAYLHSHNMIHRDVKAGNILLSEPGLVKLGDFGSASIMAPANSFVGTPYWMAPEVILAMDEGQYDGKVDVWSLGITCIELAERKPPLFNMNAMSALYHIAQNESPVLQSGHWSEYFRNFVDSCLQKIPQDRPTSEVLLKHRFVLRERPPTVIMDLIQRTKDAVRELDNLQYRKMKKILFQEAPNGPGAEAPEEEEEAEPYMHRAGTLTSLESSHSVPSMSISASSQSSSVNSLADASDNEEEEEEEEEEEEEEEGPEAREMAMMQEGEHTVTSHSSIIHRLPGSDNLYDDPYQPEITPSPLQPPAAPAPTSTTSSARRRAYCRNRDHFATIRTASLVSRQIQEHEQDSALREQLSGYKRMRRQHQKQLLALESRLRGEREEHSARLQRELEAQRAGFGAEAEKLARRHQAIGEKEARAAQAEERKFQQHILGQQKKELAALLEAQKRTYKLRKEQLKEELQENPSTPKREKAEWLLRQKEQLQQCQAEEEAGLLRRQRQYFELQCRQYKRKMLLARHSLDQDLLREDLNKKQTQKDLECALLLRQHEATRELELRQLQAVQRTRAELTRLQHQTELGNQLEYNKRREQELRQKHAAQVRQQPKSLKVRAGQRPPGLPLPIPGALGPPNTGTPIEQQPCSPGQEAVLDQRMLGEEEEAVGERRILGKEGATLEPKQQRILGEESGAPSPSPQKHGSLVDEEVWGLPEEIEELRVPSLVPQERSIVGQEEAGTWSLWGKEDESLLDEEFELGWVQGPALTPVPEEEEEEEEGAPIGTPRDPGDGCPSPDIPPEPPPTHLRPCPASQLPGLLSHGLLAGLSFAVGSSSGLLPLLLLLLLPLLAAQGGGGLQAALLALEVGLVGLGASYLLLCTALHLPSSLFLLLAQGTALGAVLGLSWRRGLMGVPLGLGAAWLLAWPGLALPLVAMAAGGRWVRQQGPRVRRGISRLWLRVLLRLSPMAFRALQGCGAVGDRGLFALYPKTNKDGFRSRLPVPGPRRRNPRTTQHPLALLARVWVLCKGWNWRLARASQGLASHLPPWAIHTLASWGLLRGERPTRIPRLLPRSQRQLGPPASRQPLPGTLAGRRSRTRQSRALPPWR

Question: For `[H]/N=C1/NC(=O)C(=Cc2ccc3c(c2)CCO3)S1` [CaNDY, (Z)-5-[(2,3-dihydrobenzofuran-5-yl)methylene]-2-iminothiazolidin-4-one], which remaining activity at 1 µM (TAOK2) is on record?
Answer: 95.7%

Question: What about the remaining activity at 1 µM (CK2α2/β) of the same molecule?
Answer: 23.4%

Question: What about the remaining activity at 1 µM (HGK) of the same molecule?
Answer: 42.1%

Question: And the remaining activity at 1 µM (TRKA)?
Answer: 101%

Question: What about the remaining activity at 1 µM (NDR2) of the same molecule?
Answer: 91.9%

Question: And the “pre-accumulated DYRK1A level” value [1]?
Answer: did not decrease pre-accumulated DYRK1A

Question: What about the remaining activity at 1 µM (HER2) of the same molecule?
Answer: 106%

Question: What about the remaining activity at 1 µM (IRR) of the same molecule?
Answer: 103%

Question: What about the remaining activity at 1 µM (RSK1) of the same molecule?
Answer: 91.2%

Question: What about the remaining activity at 1 µM (MAPKAPK3) of the same molecule?
Answer: 103%

Question: And the remaining activity at 1 µM (CaMK1α)?
Answer: 100%

Question: What about the remaining activity at 1 µM (FGFR3(K650E)) of the same molecule?
Answer: 101%

Question: And the inhibition at 1 µM (Haspin; [2])?
Answer: > 90%

Question: What about the remaining activity at 1 µM (Haspin; CaNDY 1 µM relative to DMSO) of the same molecule?
Answer: 3.8%

Question: And the inhibition at 1 µM (DYRK1B; [2])?
Answer: > 90%

Question: And the remaining activity at 1 µM (DYRK1B; CaNDY 1 µM relative to DMSO)?
Answer: 3.7%

Question: What about the inhibition at 1 µM (DYRK1A; [2]) of the same molecule?
Answer: > 90%

Question: What about the remaining activity at 1 µM (DYRK1A; CaNDY 1 µM relative to DMSO) of the same molecule?
Answer: 0.9%
